For assay [1], the target named is T1, human thrombin (Homo sapiens, UniProt P00734).
T1 construct: human thrombin (a product of SIGMA Co.); purchased SIGMA Co
The experiment in a line: Determination of thrombin-inhibiting activity. To be noted: for IC50: read-out: Thrombin-inhibiting activity (pIC50) (converted). Format: biochemical. As for the experimental part:
130 μl of 100 mM Tris-HCl buffer adjusted to pH 8.4 was added to 10 μl of an aqueous solution of a test compound. Then 10 μl of a solution of human thrombin (a product of SIGMA Co.) adjusted to 2 units/ml with Tris-HCl buffer of pH 8.4 was added to the resultant mixture. […] The absorbance was determined and then the initial reaction rate was determined. A control was prepared in the same manner as that described above except that the solution of the compound to be tested was replaced with 10 μl of tris hydrochloride buffer adjusted to pH 8.4.

For assay [2], the target named is T2, activated human blood coagulation factor X (Homo sapiens, UniProt P00742).
T2 construct: purchased Enzyme Research Co
T2 sequence (P00742 235-488 limits assumed): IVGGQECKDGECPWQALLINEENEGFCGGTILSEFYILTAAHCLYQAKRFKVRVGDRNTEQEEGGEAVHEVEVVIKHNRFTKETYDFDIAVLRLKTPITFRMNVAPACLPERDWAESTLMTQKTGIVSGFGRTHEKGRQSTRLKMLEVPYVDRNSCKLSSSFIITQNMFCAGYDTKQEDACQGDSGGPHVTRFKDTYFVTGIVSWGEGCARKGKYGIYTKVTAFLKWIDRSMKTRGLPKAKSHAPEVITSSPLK
T2 sequence (P00742 41-179 partner limits assumed): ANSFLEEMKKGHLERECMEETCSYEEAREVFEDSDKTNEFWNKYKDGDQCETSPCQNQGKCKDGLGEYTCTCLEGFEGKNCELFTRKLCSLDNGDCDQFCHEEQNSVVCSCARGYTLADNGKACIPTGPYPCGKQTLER
The experiment in a line: Determination of activity of inhibiting the activated blood coagulation factor X. The class given is biochemical. Particulars: for IC50: read-out: Activity of inhibiting activated blood coagulation factor X (pIC50) (converted). As to the method:
130 μl of 100 mM Tris-HCl buffer adjusted to pH 8.4 was added to 10 μl of an aqueous solution of a compound to be tested. Then 10 μl of a 0.5 unit/ml solution of activated human blood coagulation factor X (a product of Enzyme Research Co.) in Tris-HCl buffer hydrochloride of pH 8.4 was added to the resultant mixture. After the incubation at room temperature for 10 minutes, 50 μl of a solution of N-benzoyl-L-isoleucyl-L-glutamyl-glycyl-L-arginyl-p-nitroanilide hydrochloride (a product of Peptide Institute, Inc.) adjusted to 0.8 mM with Tris-HCl buffer (pH 8.4) was added thereto. The absorbance was determined and then the initial reaction rate was determined. A control was prepared in the same manner as that described above except that the solution of the compound to be tested was replaced with 10 μl of Tris-HCl buffer adjusted to pH 8.4.

[3] abbreviates: Table 1, negative logarithm of concentration inhibiting 50% of initial rate, substrate S-2238, Tris-HCl pH 8.4.
Where [4] appears, read: Table 1, negative logarithm of concentration inhibiting 50% of initial rate, Tris-HCl pH 8.4, room temperature.
Where [5] appears, read: Table 2, same manner as Example 94.
[6] abbreviates: Table 2, same manner as Example 93.

The text below walks through data of patent publication US7396844B1, “Benzamidine derivatives” (Ajinomoto Co., Inc., priority 1997, dated 2008).

Counter-ions that a name gives are not always drawn. Like-named read-outs stand apart in the source and are kept apart here. Where only a bound is given, the exact number is not on record here.

In the case of `CCOC(=O)C[C@H](COc1cccc(C(=N)N)c1)NC(=O)c1ccc(-c2ccccc2)cc1` [Compound of Ex. 54, ethyl (3R)-3-[(biphenyl-4-carbonyl)amino]-4-(3-amidinophenoxy)butyrate trifluoroacetate], the IC50 in assay [1] (setting [3]) is 25.1 µM; in assay [2] (setting [4]) it was 0.0501 µM.
For the compound `N=C(N)c1cccc(OCCNC(=O)c2ccc(CCc3ccncc3)cc2)c1` [Compound of Ex. 14, N-[2-(3-amidinophenoxy)ethyl]-4-[2-(pyridine-4-yl)ethyl]benzamide bistrifluoroacetate], the IC50 is 20 µM in assay [1] (setting [3]) and 0.0501 µM in assay [2] (setting [4]).
Turning to `CC(=N)N1CCC(Oc2ccc(C[C@@H](COc3cccc(C(=N)N)c3)NS(=O)(=O)c3ccc(P(=O)(O)O)cc3)cc2)CC1.O=C(O)C(F)(F)F.O=C(O)C(F)(F)F` [Compound of Ex. 74], the “Thrombin-inhibiting activity (pIC50)” value in assay [1] (setting [3]) is recorded as less than 3.7. The “Activity of inhibiting activated blood coagulation factor X (pIC50)” value in assay [2] (setting [4]) was 7.6.
On to `N=C(N)c1ccc(CC(=O)C(=O)O)c(OCCNC(=O)c2ccc(N3CCCC3)cc2)c1` [Compound of Ex. 82, 3-[4-amidino-2-[2-[4-(pyrrolidine-1-yl)benzoylamino]ethoxy]phenyl]-2-oxopropionic acid trifluoroacetate], for which the IC50 in assay [1] (setting [3]) was 6.31 µM; in assay [2] (setting [4]), 0.0251 µM.
`CCS(=O)(=O)N[C@H](COc1cccc(C(=N)N)c1)Cc1ccc(OC2CCN(C(C)=N)CC2)cc1` [Compound of Ex. 160, 3-[(2S)-2-(ethanesulfonylamino)-3-[4-(1-acetimidoyl-4-piperidyloxy)phenyl]propoxy]benzamidine bistrifluoroacetate]: the IC50 in assay [1] (setting [5]) was 158 µM; in assay [2] (setting [6]), 0.316 µM.
As to `CN(C)C(=O)c1ccc(C(=O)CCCOc2cccc(C(=N)N)c2)cc1` [Compound of Ex. 64, 4-[4-(3-amidinophenoxy)butyryl]-N,N-dimethylbenzamide trifluoroacetate], the IC50 in assay [2] (setting [4]) was 0.0631 µM.
Regarding `N=C(N)c1cccc(OCCNC(=O)c2cccc(C(=N)N)c2)c1` [Compound of Ex. 96, N-[2-(3-amidinophenoxy)ethyl]-3-amidinobenzamide bistrifluoroacetate], the IC50 in assay [1] (setting [5]) is greater than 1000 µM; in assay [2] (setting [6]) it was 1.58 µM.
Consider `CCOC(=O)C[C@H](COc1cccc(C(=N)N)c1)NC(=O)c1ccc(N2CCCC2)cc1` [Compound of Ex. 59, ethyl (3R)-4-(3-amidinophenoxy)-3-[4-(pyrrolidine-1-yl)benzoylamino]butyrate trifluoroacetate], for which the IC50 is 15.8 µM in assay [1] (setting [3]) and 0.0398 µM in assay [2] (setting [4]).
In the case of `N=C(N)c1ccc(C(=O)N[C@@H](COc2cccc(C(=N)N)c2)CC(=O)O)cc1` [Compound of Ex. 119, (3R)-3-(4-amidinobenzoylamino)-4-(3-amidinophenoxy)butanoic acid bistrifluoroacetate], the IC50 in assay [1] (setting [5]) is greater than 1000 µM; in assay [2] (setting [6]), 0.0251 µM.
Regarding `N=C(N)c1ccc(NC(=O)CCCOc2cccc(C(=N)N)c2)cc1` [Compound of Ex. 67, 4-(3-amidinophenoxy)-N-(4-amidinophenyl)butyramide bistrifluoroacetate], the IC50 is 316 µM in assay [1] (setting [3]) and 0.316 µM in assay [2] (setting [4]).
For `CCOP(=O)(O)c1ccc(S(=O)(=O)N[C@H](COc2cccc(C(=N)N)c2)Cc2ccc(OC3CCN(C(C)=N)CC3)cc2)cc1.O=C(O)C(F)(F)F.O=C(O)C(F)(F)F` [Compound of Ex. 73], the “Thrombin-inhibiting activity (pIC50)” value in assay [1] (setting [3]) worked out at 3.9. Also, the “Activity of inhibiting activated blood coagulation factor X (pIC50)” value in assay [2] (setting [4]) was 8.1.
On to `N=C(N)Nc1ccc(C(=O)N[C@@H](COc2cccc(C(=N)N)c2)CC(=O)O)cc1` [Compound of Ex. 57, (3R)-4-(3-amidinophenoxy)-3-[(4-guanidinobenzoyl)amino]butyric acid bistrifluoroacetate], for which the IC50 in assay [1] (setting [3]) was greater than 1000 µM; in assay [2] (setting [4]) it was 0.0126 µM.
For `N=C(N)c1ccc(C(=O)Nc2cccc(COc3cccc(C(=N)N)c3)c2)cc1.O=C(O)C(F)(F)F.O=C(O)C(F)(F)F` [Compound of Ex. 69, N-[3-(3-amidinophenoxymethyl)]phenyl-4-amidinobenzamide bistrifluoroacetate], the “Thrombin-inhibiting activity (pIC50)” value in assay [1] (setting [3]) is reported as 4.5. The “Activity of inhibiting activated blood coagulation factor X (pIC50)” value in assay [2] (setting [4]) came out at 6.6.
For `N=C(N)c1ccc(C(=O)N[C@H](CCOc2cccc(C(=N)N)c2)C(=O)O)cc1` [Compound of Ex. 92, (2R)-2-(4-amidinobenzoylamino)-4-(3-amidinophenoxy)butanoic acid bistrifluoroacetate], the values for the IC50 in assay [1] (setting [3]) and in assay [2] (setting [4]) were greater than 1000 µM and 0.0501 µM, respectively.
With `N=C(N)c1cccc(OCCNC(=O)c2ccc(C(=O)N3CCCC3)cc2)c1` [Compound of Ex. 9, N-[2-(3-amidinophenoxy)ethyl]-4-(1-pyrrolidinecarbonyl)benzamide trifluoroacetate], the IC50 in assay [1] (setting [3]) is 50.1 µM; in assay [2] (setting [4]), 0.02 µM.
In the case of `N=C(N)c1ccc(C(=O)N[C@H](CCC(=O)O)COc2cccc(C(=N)N)c2)cc1` [Compound of Ex. 121, (4R)-4-(4-amidinobenzoylamino)-5-(3-amidinophenoxy)pentanoic acid bistrifluoroacetate], the IC50 in assay [1] (setting [5]) is greater than 1000 µM; in assay [2] (setting [6]) it was 0.0501 µM.
Take `N=C(N)c1ccc(C(=O)N(CCOc2cccc(C(=N)N)c2)Cc2ccccc2)cc1` [Compound of Ex. 114, N-[2-(3-amidinophenoxy)ethyl]-N-phenylmethyl-4-amidinobenzamide bistrifluoroacetate]: the IC50 was 79.4 µM in assay [1] (setting [5]) and 0.0501 µM in assay [2] (setting [6]).
For `N=C(N)c1ccc(C(=S)NCCOc2cccc(C(=N)N)c2)cc1` [Compound of Ex. 1, N-[2-(3-amidinophenoxy)ethyl]-4-amidinobenzthioamide bistrifluoroacetate], the IC50 was 398 µM in assay [1] (setting [3]) and 0.398 µM in assay [2] (setting [4]).
`N=C(N)c1cccc(OCCNC(=O)c2ccc(CC3CCNCC3)cc2)c1` [Compound of Ex. 43, N-[2-(3-amidinophenoxy)ethyl]-4-[(piperidine-4-yl)methyl]benzamide bistrifluoroacetate]: the figures for the IC50 in assay [1] (setting [3]) and in assay [2] (setting [4]) were 50.1 µM and 0.251 µM, respectively.
As for `N=C(N)c1ccc(CC(=O)C(=O)O)c(OCCNC(=O)c2ccc(CC3CCNCC3)cc2)c1` [Compound of Ex. 81, 3-[4-amidino-2-[2-[4-(4-piperidylmethyl)benzoylamino]ethoxy]phenyl]-2-oxopropionic acid bistrifluoroacetate], the IC50 is 31.6 µM in assay [1] (setting [3]) and 0.0794 µM in assay [2] (setting [4]).
The matching figures for `N=C(N)c1ccc(C(=O)N[C@@H](COc2cccc(C(=N)N)c2)Cc2ccc(C(=O)O)cc2)cc1` [Compound of Ex. 90, 4-[(2R)-2-(4-amidinobenzoylamino)-3-(3-amidinophenoxy)propyl]benzoic acid bistrifluoroacetate]: greater than 251 µM and 0.0398 µM.
For `CN(C)C(=N)c1ccc(C(=O)NCCOc2cccc(C(=N)N)c2)cc1` [Compound of Ex. 7, N-[2-(3-amidinophenoxy)ethyl]-4-(N,N-dimethylamidino)benzamide bistrifluoroacetate], the IC50 in assay [2] (setting [4]) was 0.0794 µM.
Take `CN(C)C(=O)c1ccc(C(=O)NCCOc2cccc(C(=N)N)c2)cc1` [Compound of Ex. 3, N-[2-(3-amidinophenoxy)ethyl]-4-(N,N-dimethylcarbamoyl)benzamide trifluoroacetate]: the IC50 in assay [2] (setting [4]) is 0.0251 µM.
